Reference: BindingDB's records for PubMed 20126400 (University of Oklahoma, 2010)
pKi: −log10 of the molar value.

Key:
Assay in all cases: Ray2010 Assay 74
[1] = target: 5-hydroxytryptamine receptor 1D (Homo sapiens, UniProt P28221)
Text: (§1) Table S2 shows raw Ki data for the current study combined with data collected from the literature for the ten additional compounds.

[2] = target: Kappa-type opioid receptor (Homo sapiens, UniProt P41145)
Text: as §1

[3] = target: Beta-1 adrenergic receptor (Homo sapiens, UniProt P08588)
Beta-1 adrenergic receptor, sequence (P08588 whole entry): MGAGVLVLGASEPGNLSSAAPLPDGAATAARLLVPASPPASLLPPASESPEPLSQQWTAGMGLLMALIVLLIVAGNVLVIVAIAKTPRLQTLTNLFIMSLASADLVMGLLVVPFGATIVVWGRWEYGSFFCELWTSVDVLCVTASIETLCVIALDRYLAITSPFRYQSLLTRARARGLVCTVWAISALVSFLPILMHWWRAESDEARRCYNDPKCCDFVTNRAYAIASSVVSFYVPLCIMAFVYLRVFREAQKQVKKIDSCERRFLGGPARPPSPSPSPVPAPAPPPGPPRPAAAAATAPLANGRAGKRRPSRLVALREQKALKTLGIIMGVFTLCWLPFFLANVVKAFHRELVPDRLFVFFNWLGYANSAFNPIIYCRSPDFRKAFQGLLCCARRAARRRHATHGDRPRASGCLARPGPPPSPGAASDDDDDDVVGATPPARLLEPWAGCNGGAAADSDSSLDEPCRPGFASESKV
Text: as §1

[4] = target: T1, Muscarinic acetylcholine receptor M1 (Homo sapiens, UniProt P11229)
T1 sequence (P11229 whole entry): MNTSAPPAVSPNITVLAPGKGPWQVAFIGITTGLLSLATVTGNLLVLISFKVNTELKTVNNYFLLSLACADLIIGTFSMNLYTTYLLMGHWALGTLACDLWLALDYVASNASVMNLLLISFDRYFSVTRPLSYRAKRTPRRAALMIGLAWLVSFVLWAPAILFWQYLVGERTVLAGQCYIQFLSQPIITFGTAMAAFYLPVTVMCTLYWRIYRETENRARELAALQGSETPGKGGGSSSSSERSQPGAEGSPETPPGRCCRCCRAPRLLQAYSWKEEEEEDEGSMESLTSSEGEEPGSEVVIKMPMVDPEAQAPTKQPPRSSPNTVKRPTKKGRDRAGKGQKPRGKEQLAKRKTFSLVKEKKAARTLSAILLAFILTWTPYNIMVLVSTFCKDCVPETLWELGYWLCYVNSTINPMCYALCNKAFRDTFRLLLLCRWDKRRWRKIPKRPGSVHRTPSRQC
Text: as §1

[5] = target: T2, Muscarinic acetylcholine receptor M5 (Homo sapiens, UniProt P08912)
T2 sequence (P08912 whole entry): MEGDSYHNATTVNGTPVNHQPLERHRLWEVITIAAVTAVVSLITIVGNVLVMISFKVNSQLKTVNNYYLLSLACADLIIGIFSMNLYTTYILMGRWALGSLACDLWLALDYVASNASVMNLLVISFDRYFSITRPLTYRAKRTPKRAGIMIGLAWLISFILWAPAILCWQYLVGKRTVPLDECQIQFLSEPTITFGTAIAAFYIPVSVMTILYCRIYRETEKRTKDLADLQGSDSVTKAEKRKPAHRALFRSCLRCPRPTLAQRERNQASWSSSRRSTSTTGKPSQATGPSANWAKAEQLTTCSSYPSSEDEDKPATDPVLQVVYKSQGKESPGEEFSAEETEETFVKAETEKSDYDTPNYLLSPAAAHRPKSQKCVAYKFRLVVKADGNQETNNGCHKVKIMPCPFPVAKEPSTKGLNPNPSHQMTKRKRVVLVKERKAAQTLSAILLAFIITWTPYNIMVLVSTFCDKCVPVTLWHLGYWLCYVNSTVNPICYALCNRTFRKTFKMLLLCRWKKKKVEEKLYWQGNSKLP
Text: as §1

[6] = target: T3, Muscarinic acetylcholine receptor M2 (Homo sapiens, UniProt P08172)
T3 sequence (P08172 whole entry): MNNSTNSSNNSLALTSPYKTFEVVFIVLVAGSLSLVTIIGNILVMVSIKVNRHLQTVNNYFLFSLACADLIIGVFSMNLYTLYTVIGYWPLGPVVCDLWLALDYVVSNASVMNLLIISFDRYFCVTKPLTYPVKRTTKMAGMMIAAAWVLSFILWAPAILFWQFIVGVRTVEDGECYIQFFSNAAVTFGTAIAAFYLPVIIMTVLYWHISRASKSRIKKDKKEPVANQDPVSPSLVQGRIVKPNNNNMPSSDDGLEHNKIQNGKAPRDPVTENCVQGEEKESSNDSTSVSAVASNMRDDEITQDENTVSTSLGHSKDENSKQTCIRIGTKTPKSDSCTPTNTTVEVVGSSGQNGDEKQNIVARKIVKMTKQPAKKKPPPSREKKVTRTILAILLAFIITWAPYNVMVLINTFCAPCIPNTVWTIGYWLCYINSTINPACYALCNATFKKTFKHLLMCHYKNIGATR
Text: as §1

[7] = target: T4, 5-hydroxytryptamine receptor 3A (Homo sapiens, UniProt P46098)
T4 sequence (P46098 whole entry): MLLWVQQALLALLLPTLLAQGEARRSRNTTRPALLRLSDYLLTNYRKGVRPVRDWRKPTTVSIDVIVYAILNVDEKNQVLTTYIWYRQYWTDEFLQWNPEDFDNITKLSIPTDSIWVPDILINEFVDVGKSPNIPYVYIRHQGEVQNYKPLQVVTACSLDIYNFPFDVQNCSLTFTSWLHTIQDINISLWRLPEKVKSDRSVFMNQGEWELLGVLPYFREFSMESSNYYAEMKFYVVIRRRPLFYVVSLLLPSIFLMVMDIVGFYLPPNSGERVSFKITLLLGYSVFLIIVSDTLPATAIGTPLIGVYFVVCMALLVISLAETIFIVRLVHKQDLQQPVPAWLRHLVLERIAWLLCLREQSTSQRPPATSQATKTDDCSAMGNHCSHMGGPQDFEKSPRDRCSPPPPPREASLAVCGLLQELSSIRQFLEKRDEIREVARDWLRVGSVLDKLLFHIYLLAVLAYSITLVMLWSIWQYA
Text: as §1

[8] = target: T5, Alpha-1B adrenergic receptor (Homo sapiens, UniProt P35368)
T5 sequence (P35368 whole entry): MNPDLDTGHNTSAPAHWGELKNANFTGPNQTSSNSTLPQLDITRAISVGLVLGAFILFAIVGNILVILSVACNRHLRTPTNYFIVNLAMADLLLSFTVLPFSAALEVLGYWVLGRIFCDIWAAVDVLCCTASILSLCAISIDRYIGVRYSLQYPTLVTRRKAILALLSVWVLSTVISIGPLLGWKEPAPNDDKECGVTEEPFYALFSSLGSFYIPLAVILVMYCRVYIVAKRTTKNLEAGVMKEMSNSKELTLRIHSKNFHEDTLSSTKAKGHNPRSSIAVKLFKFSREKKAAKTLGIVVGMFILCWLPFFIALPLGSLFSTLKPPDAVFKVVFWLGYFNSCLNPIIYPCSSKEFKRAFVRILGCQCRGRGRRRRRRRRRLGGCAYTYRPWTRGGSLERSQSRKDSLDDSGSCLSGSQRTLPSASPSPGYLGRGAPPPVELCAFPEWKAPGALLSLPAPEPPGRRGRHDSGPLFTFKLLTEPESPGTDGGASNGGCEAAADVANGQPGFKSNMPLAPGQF
Text: as §1

[9] = target: Delta-type opioid receptor (Homo sapiens, UniProt P41143)
Delta-type opioid receptor, sequence (P41143 whole entry): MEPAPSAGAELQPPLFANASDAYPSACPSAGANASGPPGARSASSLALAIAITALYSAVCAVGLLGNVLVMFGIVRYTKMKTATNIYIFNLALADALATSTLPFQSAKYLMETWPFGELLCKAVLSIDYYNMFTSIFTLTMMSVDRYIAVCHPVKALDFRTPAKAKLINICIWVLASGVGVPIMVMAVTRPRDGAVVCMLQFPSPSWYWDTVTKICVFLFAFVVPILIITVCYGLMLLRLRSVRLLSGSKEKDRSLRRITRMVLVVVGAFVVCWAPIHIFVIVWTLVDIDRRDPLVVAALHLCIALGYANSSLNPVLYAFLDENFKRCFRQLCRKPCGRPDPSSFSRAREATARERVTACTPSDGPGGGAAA
Text: as §1

[10] = target: 5-hydroxytryptamine receptor 1B (Homo sapiens, UniProt P28222)
5-hydroxytryptamine receptor 1B, sequence (P28222 whole entry): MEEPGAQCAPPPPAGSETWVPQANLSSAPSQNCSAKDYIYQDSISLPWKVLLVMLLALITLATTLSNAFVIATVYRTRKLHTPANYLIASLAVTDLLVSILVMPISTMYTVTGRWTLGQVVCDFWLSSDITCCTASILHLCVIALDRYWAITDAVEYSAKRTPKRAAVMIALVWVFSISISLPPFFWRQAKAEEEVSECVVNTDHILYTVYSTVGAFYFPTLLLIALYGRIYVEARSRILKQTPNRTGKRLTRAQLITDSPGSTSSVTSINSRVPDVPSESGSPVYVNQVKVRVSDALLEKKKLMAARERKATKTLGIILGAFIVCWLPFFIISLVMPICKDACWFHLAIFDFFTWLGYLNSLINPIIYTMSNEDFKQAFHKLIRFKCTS
Text: as §1

[11] = target: 5-hydroxytryptamine receptor 2B (Homo sapiens, UniProt P41595)
5-hydroxytryptamine receptor 2B, sequence (P41595 whole entry): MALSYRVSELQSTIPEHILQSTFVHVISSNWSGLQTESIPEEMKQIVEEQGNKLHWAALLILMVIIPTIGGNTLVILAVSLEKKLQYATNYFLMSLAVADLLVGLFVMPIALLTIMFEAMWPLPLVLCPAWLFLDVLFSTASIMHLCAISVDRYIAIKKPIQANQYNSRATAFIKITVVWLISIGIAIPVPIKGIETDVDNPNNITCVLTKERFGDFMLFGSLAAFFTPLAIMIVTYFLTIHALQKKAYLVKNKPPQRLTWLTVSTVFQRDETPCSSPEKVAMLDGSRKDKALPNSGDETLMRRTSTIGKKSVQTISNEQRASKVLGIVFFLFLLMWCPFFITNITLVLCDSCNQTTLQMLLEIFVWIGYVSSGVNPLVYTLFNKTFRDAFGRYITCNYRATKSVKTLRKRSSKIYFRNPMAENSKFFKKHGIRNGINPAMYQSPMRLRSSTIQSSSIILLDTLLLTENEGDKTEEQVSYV
Text: as §1

[12] = target: Mu-type opioid receptor (Homo sapiens, UniProt P35372)
Mu-type opioid receptor, sequence (P35372 whole entry): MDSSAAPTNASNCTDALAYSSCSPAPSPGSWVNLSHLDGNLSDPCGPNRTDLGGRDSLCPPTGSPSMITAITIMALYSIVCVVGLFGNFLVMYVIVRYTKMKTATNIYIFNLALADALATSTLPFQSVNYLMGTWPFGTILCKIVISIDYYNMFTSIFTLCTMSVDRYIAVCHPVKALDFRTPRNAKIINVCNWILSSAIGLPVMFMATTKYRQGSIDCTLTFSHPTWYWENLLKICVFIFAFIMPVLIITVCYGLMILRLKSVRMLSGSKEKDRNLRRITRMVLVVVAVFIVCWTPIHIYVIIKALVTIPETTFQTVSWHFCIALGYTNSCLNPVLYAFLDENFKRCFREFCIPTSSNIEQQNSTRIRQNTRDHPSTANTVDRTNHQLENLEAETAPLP
Text: as §1

Kappa-type opioid receptor, sequence (P41145 whole entry): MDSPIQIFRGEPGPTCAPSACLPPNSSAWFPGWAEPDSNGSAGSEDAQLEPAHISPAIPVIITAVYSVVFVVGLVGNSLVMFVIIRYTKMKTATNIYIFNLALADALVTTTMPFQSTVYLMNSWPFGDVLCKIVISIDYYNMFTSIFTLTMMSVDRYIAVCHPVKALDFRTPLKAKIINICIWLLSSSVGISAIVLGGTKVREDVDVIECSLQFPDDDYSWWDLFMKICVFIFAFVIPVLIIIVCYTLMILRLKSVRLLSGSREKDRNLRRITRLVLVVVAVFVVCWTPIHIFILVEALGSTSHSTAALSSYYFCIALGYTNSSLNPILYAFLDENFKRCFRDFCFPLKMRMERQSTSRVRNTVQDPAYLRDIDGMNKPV
5-hydroxytryptamine receptor 1D, sequence (P28221 whole entry): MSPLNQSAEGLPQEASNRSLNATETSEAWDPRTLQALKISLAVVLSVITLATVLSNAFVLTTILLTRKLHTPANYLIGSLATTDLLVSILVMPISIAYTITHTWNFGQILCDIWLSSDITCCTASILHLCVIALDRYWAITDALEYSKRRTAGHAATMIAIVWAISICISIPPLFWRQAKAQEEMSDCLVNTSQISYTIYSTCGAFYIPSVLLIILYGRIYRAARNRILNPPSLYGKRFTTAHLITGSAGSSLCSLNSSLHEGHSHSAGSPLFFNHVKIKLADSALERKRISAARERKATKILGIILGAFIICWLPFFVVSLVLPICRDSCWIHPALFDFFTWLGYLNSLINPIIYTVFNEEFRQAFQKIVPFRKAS

Compound | pKi [1] | pKi [2] | pKi [3] | pKi [4] | pKi [5] | pKi [6] | pKi [7] | pKi [8] | pKi [9] | pKi [10] | pKi [11] | pKi [12]
CAS_82830-44-2::(2R)-1-(4-iodo-2,5-dimethoxyphenyl)propan-2-amine::DOI,(-)::US20250270173, Compound DOI | 6.34 | < 5.00 | 6.23 | 5.57 | 5.66 | 5.70 | < 5.00 | < 5.00 | < 5.00 | < 5.00 | 6.47 | < 5.00
CCOc1cc(OC)c(CC(C)N)cc1OC (stereo not given) | < 5.00 | < 5.00 | < 5.00 | < 5.00 | < 5.00 | < 5.00 | < 5.00 | < 5.00 | < 5.00 | < 5.00 | 7.19 | < 5.00
COc1ccc2[nH]cc(CCN(C(C)C)C(C)C)c2c1 [5-meo-dipt] | 5.76 | < 5.00 | < 5.00 | < 5.00 | < 5.00 | < 5.00 | < 5.00 | < 5.00 | < 5.00 | – | 6.79 | < 5.00
CCc1cc(OC)c(CCN)cc1OC [2-(2,5-dimethoxy-4-ethylphenyl)ethylamine] | 7.14 | < 5.00 | < 5.00 | < 5.00 | 5.76 | < 5.00 | < 5.00 | < 5.00 | < 5.00 | 6.60 | 7.60 | < 5.00
CN(C)CCc1c[nH]c2cc(F)ccc12 [6-f-dmt] | 7.26 | < 5.00 | < 5.00 | < 5.00 | < 5.00 | < 5.00 | < 5.00 | < 5.00 | < 5.00 | 6.66 | 7.53 | < 5.00
CCSc1cc(OC)c(CC(N)CC)cc1OC (stereo not given) [1-(4-Ethylsulfanyl-2,5-dimethoxy-benzyl)-propylamine] | < 5.00 | < 5.00 | < 5.00 | < 5.00 | < 5.00 | < 5.00 | < 5.00 | < 5.00 | < 5.00 | < 5.00 | 7.24 | < 5.00
COc1ccc2[nH]cc(CCN(C)C(C)C)c2c1 [5-meo-mipt] | 7.65 | < 5.00 | < 5.00 | < 5.00 | < 5.00 | < 5.00 | < 5.00 | < 5.00 | < 5.00 | 6.52 | 7.23 | < 5.00
COc1cc(CC(C)N)c(OC)cc1C (stereo not drawn) [(+/-)2-(2,5-Dimethoxy-4-methyl-phenyl)-1-methyl-ethylamine] | 6.68 | < 5.00 | < 5.00 | < 5.00 | < 5.00 | < 5.00 | < 5.00 | < 5.00 | < 5.00 | < 5.00 | 7.93 | < 5.00
CCSc1cc(OC)c(CC(C)N)cc1OC (stereo not given) [2-(4-Ethylsulfanyl-2,5-dimethoxy-phenyl)-1-methyl-ethylamine] | 5.81 | < 5.00 | 5.17 | < 5.00 | 5.10 | < 5.00 | < 5.00 | < 5.00 | < 5.00 | 5.69 | 8.80 | < 5.00
CCCN(CCC)CCc1c[nH]c2ccccc12 [dpt] | 6.21 | < 5.00 | < 5.00 | < 5.00 | < 5.00 | < 5.00 | < 5.00 | 6.35 | < 5.00 | 6.07 | 7.38 | < 5.00
COc1cc(CC(C)N)c(OC)cc1Br (stereo not drawn) [2-(4-Bromo-2,5-dimethoxy-phenyl)-1-methyl-ethylamine((-)-DOB)] | 6.20 | < 5.00 | 5.62 | < 5.00 | < 5.00 | < 5.00 | < 5.00 | < 5.00 | < 5.00 | 6.03 | 8.41 | < 5.00
CCSc1cc(OC)c(CCN)cc1OC [2C-T-2] | 7.07 | < 5.00 | 5.04 | < 5.00 | 5.82 | < 5.00 | < 5.00 | < 5.00 | < 5.00 | 6.07 | 8.22 | < 5.00
CC(C)N(CCc1c[nH]c2ccccc12)C(C)C [dipt] | 5.43 | < 5.00 | < 5.00 | < 5.00 | < 5.00 | < 5.00 | < 5.00 | < 5.00 | < 5.00 | < 5.00 | 6.40 | < 5.00
